# Assay results: patent US20250205197A1
# Entries after “also recorded” stand apart in the source; their conditions may differ.
# How the values were obtained:
# [1] = Solubility of the salt in water
# 5-HT2A receptor [2] = biological target: T1, 5-HT2A receptor (Mus musculus, UniProt P35363); assay: Drug-induced Head Twitch Response (HTR) in mice; type: in vivo; settings: i.p. 1 mg/kg; for Head Twitch Response (HTR): 15-to-30-minute window following administration, relative to vehicle
# T1 construct: tissue Charles River; host or cells: living C57BL/6-Elite mice (brain, in vivo)
# 5-HT1A receptor = biological target: T2, 5-HT1A receptor (Homo sapiens, UniProt P08908); assay: cAMP-Glo assay of 5-HT1A receptor modulation, CHO-K1/5-HT1A/Ga15 vs CHO-K1/Ga15 cells; type: cell-based; settings: for 5-HT1A receptor modulation (cAMP, +5-HT1A vs −5-HT1A cultures): forskolin-stimulated cells, 20 minutes treatment; for cAMP levels with increasing ligand: +5-HT1A cells stimulated with forskolin, control ligands
# T2 construct: host or cells: CHO-K1 (co-expressing Ga15)
# T2 sequence (P08908 1-422): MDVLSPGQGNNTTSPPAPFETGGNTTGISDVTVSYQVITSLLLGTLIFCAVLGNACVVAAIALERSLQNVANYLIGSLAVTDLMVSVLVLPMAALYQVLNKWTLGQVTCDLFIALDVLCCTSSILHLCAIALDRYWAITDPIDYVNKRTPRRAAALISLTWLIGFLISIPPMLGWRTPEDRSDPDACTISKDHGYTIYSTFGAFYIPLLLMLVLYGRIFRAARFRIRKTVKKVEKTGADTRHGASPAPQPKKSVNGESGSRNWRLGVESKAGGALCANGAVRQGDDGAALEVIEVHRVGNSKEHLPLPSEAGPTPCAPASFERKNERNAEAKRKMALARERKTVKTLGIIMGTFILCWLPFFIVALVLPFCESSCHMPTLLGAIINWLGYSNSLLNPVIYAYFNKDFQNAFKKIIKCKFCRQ
# 5-HT2A receptor [3] = biological target: 5-HT2A receptor (Homo sapiens, UniProt P28223); assay: [3H]ketanserin radioligand competition binding assay (SPA); settings: [3H]ketanserin competition
# [4] = Stability assay in enzyme-free control buffer; type: in vitro ADME; settings: negative control buffer, pH 7.4
# From the text: (§1) A fundamental evaluation in drug development is the assessment of absorption, distribution, metabolism, excretion, and pharmacokinetics (ADME/PK) (Eddershaw et al., 2000, Drug Discovery Today 5(9): 409-414). […] Drug stability upon exposure to human liver microsomes and liver S9 cellular fractions is a common in vitro assay to approximate in vivo, liver-based drug metabolism (Richardson et al., 2016 Drug Metabolism Letters 10:83-90). First-pass metabolism is also often approximated in vitro using intestinal microsome and cellular S9 fractions (Hatley et al., 2017, Biopharmaceuticals & Drug Disposition, 38(2):155-160). […] Supernatants were analyzed for the presence of candidate prodrugs (parent molecule) and psilocin (the predicted metabolite) using Orbitrap LC-MS (Thermo Scientific) using previously described methods (Menéndez-Perdomo et al., 2021, J Mass Spectrom, 56: e4683). […] Assay concentrations (μM) of both parent ‘prodrug’ molecule and psilocin metabolite, as quantified through LC-MS using routine standard curve procedures, were plotted as functions of assay time (minutes). The metabolism rate (T1/2) was determined from the metabolism curve plot using the one phase decay feature of GraphPad PRISM software (Version 9.2.0). The quantity of parent prodrug at time zero was set as 100%. […]
# [5] = In vitro metabolic stability assay, human AB serum; type: in vitro ADME; settings: 10% human AB serum
# From the text: as §1, with “38(2):155-160). Further, it is well known that human serum, and particularly circulating serum esterases can contribute to systemic drug metabolism (Williams, F M 1987, Pharmacology and Therapeutics, 34:99-109). Many pharmacological agents are classified as prodrugs, as they undergo metabolic transformation in vivo upon administration to release the active drug compound into the systemic compartment (Zawilska J B, et al. 2013, Pharmacological Reports, 65:1-14). Psilocybin, a serotonergic psychedelic agent, is well known prodrug that is metabolized into the psychoactive product, psilocin (Dinis-Oliveira, R J 2017, Drug Metabolism Reviews, 49(1):84-91).” for “38(2):155-160).”
# [6] = In vitro metabolic stability and psilocin-release assays, statements covering several fractions; type: in vitro ADME, human
# From the text: as §1, with “38(2):155-160). Further, it is well known that human serum, and particularly circulating serum esterases can contribute to systemic drug metabolism (Williams, F M 1987, Pharmacology and Therapeutics, 34:99-109). Many pharmacological agents are classified as prodrugs, as they undergo metabolic transformation in vivo upon administration to release the active drug compound into the systemic compartment (Zawilska J B, et al. 2013, Pharmacological Reports, 65:1-14). Psilocybin, a serotonergic psychedelic agent, is well known prodrug that is metabolized into the psychoactive product, psilocin (Dinis-Oliveira, R J 2017, Drug Metabolism Reviews, 49(1):84-91).” for “38(2):155-160).”
# [7] = In vitro metabolic stability assay, human liver S9 fractions; type: in vitro ADME; settings: HLS9 fraction, 37° C., NADPH
# From the text: as §1
# [8] = Mouse pharmacokinetic (PK) evaluation of drug metabolism to psilocin; type: in vivo, C57Bl/6 mice; settings: mice
# [9] = In vitro metabolic stability assay, human liver microsomes; type: in vitro ADME; settings: HLM fraction, 37° C., NADPH
# From the text: as §1
# HepG2 cells = assay: PrestoBlue cell viability assay in HepG2 cells; type: cell-based, human; settings: 48 hours incubation
# From the text: Methanol or DMSO were used as vehicles, at concentrations 0, 0.001, 0.01, 0.1, and 1% (methanol) or 0, 0.001, 0.01, 0.1, and 1% (DMSO), respectively. […] Non-treated cells were assigned 100% viability. Bar graphs show the mean+/−SD, n=3.
# Non-treated cells were assigned 100% viability. Bar graphs show the mean+/−SD, n=3.
# T1 sequence (P35363 whole entry): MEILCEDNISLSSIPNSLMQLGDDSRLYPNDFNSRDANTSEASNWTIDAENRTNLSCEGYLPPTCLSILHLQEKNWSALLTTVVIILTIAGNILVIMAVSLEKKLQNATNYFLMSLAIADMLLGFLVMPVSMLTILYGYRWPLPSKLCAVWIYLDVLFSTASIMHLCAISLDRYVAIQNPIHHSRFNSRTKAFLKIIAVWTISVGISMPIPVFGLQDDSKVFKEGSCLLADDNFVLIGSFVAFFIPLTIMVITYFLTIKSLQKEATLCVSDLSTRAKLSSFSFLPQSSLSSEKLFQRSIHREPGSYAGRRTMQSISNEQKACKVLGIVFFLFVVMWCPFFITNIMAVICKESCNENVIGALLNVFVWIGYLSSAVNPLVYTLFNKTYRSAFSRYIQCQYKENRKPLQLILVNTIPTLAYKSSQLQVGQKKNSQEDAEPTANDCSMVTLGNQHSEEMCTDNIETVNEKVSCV
# Sequence of 5-HT2A receptor (Homo sapiens, UniProt P28223) (P28223 whole entry): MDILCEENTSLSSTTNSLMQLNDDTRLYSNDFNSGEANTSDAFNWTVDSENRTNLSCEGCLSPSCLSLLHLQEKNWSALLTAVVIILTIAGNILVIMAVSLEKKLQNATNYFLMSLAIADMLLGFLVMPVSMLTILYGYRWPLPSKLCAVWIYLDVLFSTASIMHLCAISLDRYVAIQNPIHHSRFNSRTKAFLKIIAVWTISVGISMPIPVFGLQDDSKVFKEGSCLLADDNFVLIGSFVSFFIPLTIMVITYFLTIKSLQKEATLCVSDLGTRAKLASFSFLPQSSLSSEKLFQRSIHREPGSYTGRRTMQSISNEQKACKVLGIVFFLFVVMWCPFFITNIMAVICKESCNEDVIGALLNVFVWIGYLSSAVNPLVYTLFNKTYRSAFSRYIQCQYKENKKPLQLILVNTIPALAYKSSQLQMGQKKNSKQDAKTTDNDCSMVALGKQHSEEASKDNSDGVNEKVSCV
smiles,measurement,setting,value
COc1ccc(C(=O)Oc2cccc3[nH]cc(CCN(C)C)c23)cc1.O=C(O)C(O)C(O)C(=O)O [C(Va2)],solubility in water,[1],≥ 10 mg per mL
CN(C)CCc1c[nH]c2cccc(OC(=O)c3c(F)c(F)c(F)c(F)c3F)c12 [C(VI)],Head Twitch Response (HTR),5-HT2A receptor [2],Elevated incidences of HTR
same,"5-HT1A receptor modulation (cAMP, +5-HT1A vs −5-HT1A cultures)",5-HT1A receptor,no receptor modulation at higher ligand concentrations
CN(C)CCc1c[nH]c2cccc(OC(=O)SCc3ccccc3)c12 [E(VIb1)],solubility,[1],> 10000 µg/mL
CN(C)CCc1c[nH]c2cccc(OC(=O)SCc3ccccc3)c12.Cl [E(VIa1)],solubility in water,[1],≥ 10 mg per mL
COCCOCCOCC(=O)Oc1cccc2[nH]cc(CCN(C)C)c12 [C(III)],Head Twitch Response (HTR),5-HT2A receptor [2],Elevated incidences of HTR
same,"5-HT1A receptor modulation (cAMP, +5-HT1A vs −5-HT1A cultures)",5-HT1A receptor,significant receptor modulation
"CN(C)CCc1c[nH]c2cccc(O)c12 [psilocin, reference compound]","competition binding at 5-HT2A (controls, in words)",5-HT2A receptor [3],binding
same,cAMP levels with increasing ligand,5-HT1A receptor,reduction in cAMP levels
CN(C)CCc1c[nH]c2cccc(OP(=O)(O)O)c12 [psilocybin],stability in assay buffer,[4],stability of psilocybin was confirmed in assay buffer
same,stability / dissociation to psilocin in serum,[5],stable in serum with no conversion to psilocin
same,stability / conversion to psilocin in liver fractions,"[6]; liver fractions (HLM, HLS9)",stable in liver fractions with no conversion to psilocin
CN(C)CCc1c[nH]c2cccc(OC(=O)SCc3ccccc3)c12 [E(VI)],half-life (T1/2),[7],5 min
same,stability / dissociation to psilocin in serum,[5],nearly completely disappears
same,detection of the derivative in plasma,[8]; oral 1 mg/kg,neither B(II) nor E(VI) were detected in plasma
same,detection of the derivative in plasma,[8]; oral 3 mg/kg and 10 mg/kg,never detected at any timepoint
same,half-life (T1/2),[9],6 min
same,"Head Twitch Response, E(VI) compared to B(II)",5-HT2A receptor [2],elevated response
same,Head Twitch Response (HTR),5-HT2A receptor [2]; 1 mg/kg,Elevated incidences of HTR; also recorded: elicit head twitching
same,"5-HT1A receptor modulation (cAMP, +5-HT1A vs −5-HT1A cultures)",5-HT1A receptor,mild receptor modulation at higher ligand concentrations
same,conversion to psilocin,[6]; liver fractions and serum,quickly converted to psilocin in liver fractions and serum
CN(C)CCc1c[nH]c2cccc(OC(=O)c3cccc4c3OCCO4)c12 [C(XX)],Head Twitch Response (HTR),5-HT2A receptor [2],Elevated incidences of HTR
same,"5-HT1A receptor modulation (cAMP, +5-HT1A vs −5-HT1A cultures)",5-HT1A receptor,significant receptor modulation
"N[C@@H](Cc1c[nH]c2ccccc12)C(=O)O [tryptophan, reference compound]","competition binding at 5-HT2A (controls, in words)",5-HT2A receptor [3],no binding
same,cAMP levels with increasing ligand,5-HT1A receptor,no reduction in cellular cAMP levels
COC(=O)c1cccc(C(=O)Oc2cccc3[nH]cc(CCN(C)C)c23)c1 [C(XLIII)],"5-HT1A receptor modulation (cAMP, +5-HT1A vs −5-HT1A cultures)",5-HT1A receptor,receptor modulation at higher ligand concentrations
COc1ccc(C(=O)Oc2cccc3[nH]cc(CCN(C)C)c23)cc1 [C(V)],Head Twitch Response (HTR),5-HT2A receptor [2],Elevated incidences of HTR
same,"5-HT1A receptor modulation (cAMP, +5-HT1A vs −5-HT1A cultures)",5-HT1A receptor,mild receptor modulation at higher ligand concentrations
"NCCc1c[nH]c2ccc(O)cc12 [serotonin, reference compound]",cAMP levels with increasing ligand,5-HT1A receptor,reduction in cAMP levels
CN(C)CCc1c[nH]c2cccc(OC(=O)CC3CC3)c12 [C(IV)],Head Twitch Response (HTR),5-HT2A receptor [2],Elevated incidences of HTR
same,"5-HT1A receptor modulation (cAMP, +5-HT1A vs −5-HT1A cultures)",5-HT1A receptor,significant receptor modulation
CN(C)CCc1c[nH]c2cccc(OC(=O)c3ccc(Br)cc3)c12 [C(I)],Head Twitch Response (HTR),5-HT2A receptor [2],Elevated incidences of HTR
same,"5-HT1A receptor modulation (cAMP, +5-HT1A vs −5-HT1A cultures)",5-HT1A receptor,mild receptor modulation at higher ligand concentrations
CN(C)CCc1c[nH]c2cccc(OC(=O)OCc3ccccc3)c12 [B(II)],stability / dissociation to psilocin in serum,[5],failed completely to dissociate
same,time the derivative resides in plasma post-dosing,[8]; oral 10 mg/kg,up to 4 hours
same,"CD50 (cytotoxicity, cell viability)",HepG2 cells,65.9 µM
same,Head Twitch Response (HTR),5-HT2A receptor [2],elicit head twitching
same,dissociation to psilocin,"[6]; HLM, HLS9, HIM, HIS9, AB serum, buffer control",did not readily dissociate to psilocin under any conditions
COc1ccc(C(=O)Oc2cccc3[nH]cc(CCN(C)C)c23)cc1 [C(Vb1)],solubility in water,[1],< 1 mg in a mL
COc1ccc(C(=O)Oc2cccc3[nH]cc(CCN(C)C)c23)cc1 [C(Va1)],solubility in water,[1],≥ 10 mg per mL
CN(C)CCc1c[nH]c2cccc(OC(=O)c3cccc(C(=O)Oc4cccc5[nH]cc(CCN(C)C)c45)c3)c12 [C(VII)],Head Twitch Response (HTR),5-HT2A receptor [2],Elevated incidences of HTR
same,"5-HT1A receptor modulation (cAMP, +5-HT1A vs −5-HT1A cultures)",5-HT1A receptor,no significant receptor modulation
